Assay results taken from patent publication US20140088006A1, “Stem Cell Mobilization and Tissue Repair and Regeneration” (Wellstat Therapeutics Corporation, priority 2011, published 2014).
Where “and” joins values, the source holds several entries; their conditions need not be identical. Equal values may be shown once. No end group written: not given here.

Key:
[1] = test system: CFU-GEMM / CFU-GM progenitor cells; experiment: CFU colony assay of peripheral blood after 4 daily subcutaneous injections; format: in vivo, C57Bl/6 male mice; details: for CFU-GEMM number, AVG / CFU-GEMM number: 1 hr after injection; for CFU-GEMM number: individual dishes
Procedure: (§1) This example is based on a protocol for a 4-day course of once-daily Compound X injections into C57Bl/6 male mice similar to G-CSF. Two effective dose levels of Compound X were found previously to mobilize HSC 1 hr after single injection and were selected for this experiment. Four-month old C57Bl/6 male mice (Jackson Laboratories) were subcutaneously injected with 0.9% saline, 125 μg/kg Compound X or 250 μg/kg Compound X on days 1, 2, 3 and 4 as described in Table 4. Each day, one-hour post injections, peripheral blood from 3 mice per group was harvested from the orbital plexus into EDTA-containing tubes. On day 4, a femur and spleen were also removed from mice to assess by FACS whether any toxicity aroused from repeated injections of Compound X.
(§2) As in the previous example to determine mobilization of colony-forming cells out of the bone marrow, mononuclear cells from peripheral blood were plated into MethoCult 3434 media (Stem Cell Technologies). Briefly, after white blood cell counting, the remaining peripheral blood was diluted (1:1, v/v) with 0.9% saline (APP Pharmaceutical) and layered (2:1, v/v) onto 1-Step™1.077 A (Accurate Chemicals) in 15-ml centrifuge tubes. Cells were centrifuged at 600×g for 20 min at room temperature. The mononuclear cells were harvested from the interface between the plasma layer and the 1-Step™ A solution using a 1-ml syringe and blunt-end needle. The cells were transferred to 15-ml centrifuge tubes and washed twice in 1×PBS. Cells were resuspended in 1 ml of IMDM and cell counts were obtained using the Coulter counter. Cells were placed into 35-mm Petri dishes at 200,000 cells per dish with 5 dishes per group. Cells incubated for 10 days in a 37° C. and 5% CO2 humidified incubator. CFU colonies were then scored using an inverted microscope—CFU-GM detected on day 7 and CFU-GEMM—on day 10. Data presented in Tables 7, 8 and 9, FIGS. 3 and 4.

[2] = test system: spleen cells; experiment: Flow cytometry analysis of stem cell phenotypes in spleens on day 7; format: in vivo, mice; details: 250 μg/kg
[3] = test system: white blood cells in peripheral blood; experiment: White blood cell number after 4 daily subcutaneous injections; format: in vivo, C57Bl/6 male mice; design: White blood cell number in peripheral blood: unit not given here; details: for White blood cell number in peripheral blood: 1 hr after injection
Procedure: as §1, §2

FPHFDLSHGSAQV [Compound X, tridecapeptide that acts on stem cells]
CFU-GEMM number, AVG ([1]; 125 μg/kg s.c. daily, Day 1): 2.4 per 100000 mononuclear cells | CFU-GEMM number ([1]; 125 μg/kg s.c. daily, Day 1): 2 per 100000 mononuclear cells (4×) and 4 per 100000 mononuclear cells | CFU-GEMM number, AVG ([1]; 125 μg/kg s.c. daily, Day 2): 2.8 per 100000 mononuclear cells | CFU-GEMM number ([1]; 125 μg/kg s.c. daily, Day 2): 5 per 100000 mononuclear cells and 3 per 100000 mononuclear cells (2×) and 1 per 100000 mononuclear cells and 2 per 100000 mononuclear cells | CFU-GEMM number, AVG ([1]; 125 μg/kg s.c. daily, Day 3): 0.4 per 100000 mononuclear cells | CFU-GEMM number ([1]; 125 μg/kg s.c. daily, Day 3): 1 per 100000 mononuclear cells (2×) and 0 per 100000 mononuclear cells (3×) | CFU-GEMM number, AVG ([1]; 125 μg/kg s.c. daily, Day 4): 0.8 per 100000 mononuclear cells | CFU-GEMM number ([1]; 125 μg/kg s.c. daily, Day 4): 0 per 100000 mononuclear cells (2×) and 2 per 100000 mononuclear cells and 1 per 100000 mononuclear cells (2×) | increase in multilineage CFU-GEMM colonies vs saline ([1]; 250 μg/kg over 4 days, all days): ≥ 2 fold | CFU-GEMM number, AVG ([1]; 250 μg/kg s.c. daily, Day 1): 2.6 per 100000 mononuclear cells | CFU-GEMM number ([1]; 250 μg/kg s.c. daily, Day 1): 4 per 100000 mononuclear cells (2×) and 1 per 100000 mononuclear cells and 2 per 100000 mononuclear cells (2×) | CFU-GEMM number, AVG ([1]; 250 μg/kg s.c. daily, Day 2): 3.6 per 100000 mononuclear cells | CFU-GEMM number ([1]; 250 μg/kg s.c. daily, Day 2): 2 per 100000 mononuclear cells and 6 per 100000 mononuclear cells (2×) and 3 per 100000 mononuclear cells and 1 per 100000 mononuclear cells | CFU-GEMM number, AVG ([1]; 250 μg/kg s.c. daily, Day 3): 2.8 per 100000 mononuclear cells | CFU-GEMM number ([1]; 250 μg/kg s.c. daily, Day 3): 2 per 100000 mononuclear cells (2×) and 4 per 100000 mononuclear cells and 3 per 100000 mononuclear cells (2×) | CFU-GEMM number, AVG ([1]; 250 μg/kg s.c. daily, Day 4): 4 per 100000 mononuclear cells | CFU-GEMM number ([1]; 250 μg/kg s.c. daily, Day 4): 4 per 100000 mononuclear cells (3×) and 3 per 100000 mononuclear cells and 5 per 100000 mononuclear cells | increase in CFU-GEMM vs saline ([1]; 250 μg/kg, day 3): 4.7 fold | mobilization of granulocytic and macrophage precursors CFU-GM ([1]; s.c. daily for 4 days): did not affect mobilization | accumulation of cells with stem cell phenotypes in the spleens [2]: No accumulation | CD34+ Flk-1+, Mean ([2]; spleen): 0.03 | CD34+ Flk-1−, Mean ([2]; spleen): 0.05 | CD34− Flk-1+, Mean ([2]; spleen): 0.38 | CD150+ CD48−, Mean ([2]; spleen): 0.17 | CD244+ CD48+, Mean ([2]; spleen): 0.78 | Lin− Kit+ Sca-1+, Mean ([2]; spleen): 0.07 | Lin− Kit+ Sca-1−, Mean ([2]; spleen): 0.50 | Lin− Kit^low Sca-1+, Mean ([2]; spleen): 0.17 | White blood cell number in peripheral blood ([3]; 125 μg/kg s.c. daily, Day 1): 7.4 | White blood cell number in peripheral blood ([3]; 125 μg/kg s.c. daily, Day 2): 8.8 | White blood cell number in peripheral blood ([3]; 125 μg/kg s.c. daily, Day 3): 6.0 | White blood cell number in peripheral blood ([3]; 125 μg/kg s.c. daily, Day 4): 8.6 | White blood cell number in peripheral blood ([3]; 250 μg/kg s.c. daily, Day 1): 8.6 | White blood cell number in peripheral blood ([3]; 250 μg/kg s.c. daily, Day 2): 8.2 | White blood cell number in peripheral blood ([3]; 250 μg/kg s.c. daily, Day 3): 10.2 | White blood cell number in peripheral blood ([3]; 250 μg/kg s.c. daily, Day 4): 9.2 | White blood cell number ([3]; multiple daily injections, 125 and 250 μg/kg): did not change
